pIC50: −log10 of the molar value.
Biological target: T1, human A3 receptor (Homo sapiens, UniProt P0DMS8)
T1 construct: expressed in transfected cells
T1 sequence (P0DMS8 1-318): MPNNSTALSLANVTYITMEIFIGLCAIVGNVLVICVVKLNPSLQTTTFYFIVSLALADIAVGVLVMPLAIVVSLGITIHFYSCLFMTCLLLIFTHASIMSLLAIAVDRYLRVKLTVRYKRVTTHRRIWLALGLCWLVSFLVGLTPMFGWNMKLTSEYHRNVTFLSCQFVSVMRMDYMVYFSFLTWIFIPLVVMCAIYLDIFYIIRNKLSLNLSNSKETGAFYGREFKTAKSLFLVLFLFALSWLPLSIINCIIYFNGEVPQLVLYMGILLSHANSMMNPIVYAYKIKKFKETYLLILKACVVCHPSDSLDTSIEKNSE
Assay: Radioligand displacement binding, [125I]AB-MECA, mammalian membranes
Conditions: [125I]AB-MECA 0.75 nM; 10 ug mammalian membranes; 60 minutes room temperature; read-out: IC50 hA3R

pIC50: 5.09
SMILES: O=c1[nH]c(=O)c2nc3ccccc3nc2[nH]1 [Alloxozine]
